# Measurements from patent publication US20110212909A1, “Use of Ginsenoside Compound K in the Preparation of a Medicament for the Prevention and Treatment of Atherosclerosis” (priority 2008, published 2011).
# Marks after values point to notes of the source that are not given here.
# What was measured:
# CD36 mRNA = assay: Real-time quantitative PCR of CD36 mRNA in apo E−/− mouse aorta; format: in vivo; conditions: apo E−/− mice, 15 weeks
# Procedure: (§1) 80 healthy clean grade C57BL/6J apo E^−/^− mice of 10 weeks old, wherein male and female mice were fifty-fifty, weight 20-22 g, were breed and divided into individual cage in sterile laminar flow rack, allowing mice to freely drink water and get food. Mice were raised for 30 weeks by “Western Diet” (routine mouse feed +0.15% cholesterol +21% fat) high fat feed (^60cobalt sterilization radiation treatment), with raising conditions being SPF grade, room temperature maintained at 24° C., relative humidity of 50%, and lighting time of 7: 30-19: 30. Animal house was sterilized by ultraviolet lamp once every two days, in order to maintain sterile environment of laminar flow rack (establishment of animal model of atherosclerosis refers to reference: Barish G D, Atkins A R, Downes M, Olson P, Chong L W, Nelson M, Zou Y H, Hwang H S, Kang H J, Curtiss L, Evans R M, Lee C H. PPARδ regulates multiple proinflammatory pathways to suppress atherosclerosis. Proc Natl Acad Sci, 2008, 105 (11): 4271-4276.).
# (§2) 5 mice of apo E^−/^− mice raised for 15 weeks were randomly selected and sacrificed, root of aorta of which was taken, and replication condition in AS model was observed by HE staining. The remaining mice were randomly divided into 5 groups as follows (n=15): […]
# (§3) Above drugs were firstly solved in DMSO, then suspended in 0.5% carboxymethylcellulose solution, mixed homogeneously, and then were administered via gavage, once a day. Mice were weighted once a week, and ingestion amounts were recorded, and drug doses were adjusted according to weight, interfering for 15 weeks. […]
# (§4) • blood fat assay: TC, TG, HDL-C, and LDL-C concentrations in serum were determined by applying Olympus Au2700 fully automatic biochemical appearance. • serum inflammatory markers assay: hs-CRP and sCD40L concentrations were determined by applying double antibody sandwich ELISA, in accordance with ELISA kit operating instruction (hs-CRP ELISA kit bought from Herrenberg company, Germany; sCD40L ELISA kit bought from Bender Medsystems company, Austria). • real-time quantitative PCR analysis was carried out on expression of CD36, perilipin, ABCA1, LXRα, MMP-9 and NF-κ B mRNA in apo E^−/^− mouse aorta (a reference method: Zhang Yiguan, Li Xiaohui, Fan Jishan, Zhang Haigang, Li Shuhui, Liao Wenqiang, Pang Yan, Jia Yi. […] 2007, 27 (11): 1601-1607)0 • morphology index image analysis: When slices were HE stained, under X40 fold ordinary light microscope, artery atherosclerosis plaque area of each incisal surface was determined by “Image Pro Plus 5.0” image analysis software. […] As to Masosn staining, aortic root collagen area (CA) was measured by “Image Pro Plus 5.0” image analysis software, and collagen vessel area ratio (CA/CVA) was calculated. […]
# LXRα mRNA = assay: Real-time quantitative PCR of LXRα mRNA in apo E−/− mouse aorta; format: in vivo; conditions: apo E−/− mice, 15 weeks
# Procedure: as §1, §2, §3, §4
# MMP-9 mRNA = assay: Real-time quantitative PCR of MMP-9 mRNA in apo E−/− mouse aorta; format: in vivo; conditions: apo E−/− mice, 15 weeks
# Procedure: as §1, §2, §3, §4
# hs-CRP = assay: Serum hs-CRP by double antibody sandwich ELISA in apo E−/− mice; format: in vivo, mouse; conditions: 15 weeks
# Procedure: as §1, §2, §3
# • blood fat assay: TC, TG, HDL-C, and LDL-C concentrations in serum were determined by applying Olympus Au2700 fully automatic biochemical appearance. • serum inflammatory markers assay: hs-CRP and sCD40L concentrations were determined by applying double antibody sandwich ELISA, in accordance with ELISA kit operating instruction (hs-CRP ELISA kit bought from Herrenberg company, Germany; sCD40L ELISA kit bought from Bender Medsystems company, Austria). • real-time quantitative PCR analysis was carried out on expression of CD36, perilipin, ABCA1, LXRα, MMP-9 and NF-κ B mRNA in apo E^−/^− mouse aorta (a reference method: Zhang Yiguan, Li Xiaohui, Fan Jishan, Zhang Haigang, Li Shuhui, Liao Wenqiang, Pang Yan, Jia Yi. […] 2007, 27 (11): 1601-1607)0 • morphology index image analysis: When slices were HE stained, under X40 fold ordinary light microscope, artery atherosclerosis plaque area of each incisal surface was determined by “Image Pro Plus 5.0” image analysis software. […]
# [1] = test system: AS plaque in apo E−/− mouse aorta; assay: Sudan IV staining of aorta, proportion of plaque area in arteria lining endothelium area; format: in vivo; conditions: apo E−/− mice, 15 weeks
# Text: Tissues of apo E^−/^− mice were sliced for AS plaque pathology: blood of eye sockets venous plexus of apo E−/− mice was sampled before the mice was sacrificed by cervical dislocation, and aorta was fixed by converse infusion of physiological saline comprising 4% paraformaldehyde into left ventricle, and then whole aorta was cut off from root of aorta to terminal end of abdomen aorta. Root of aorta was taken, and embedded routinely by paraffin, and slices of thickness of 5 μm were continuously cut off from root of aorta, and were subjected separately to HE staining, and MASSON staining, and then were utilized for AS plaque morphological index analysis of aortic valve cross section.
# Pathological staining: □sequent 2 pieces of slices were picked up from each incisal surface of sequent paraffin slices of aorta root per mouse, and were separately subjected to HE staining, and MASSON staining, and were observed under light microscope. □remaining aorta was stained by Sudan IV, and was observed under light microscope.
# apo E−/− mouse = assay: Blood fat assay in serum of apo E−/− mice on Western Diet; format: in vivo; conditions: for HDL-C in serum / LDL-C in serum / TC in serum / TC-HDL/HDL / TG in serum: 15 weeks
# Procedure: as §1
# 5 mice of apo E^−/^− mice raised for 15 weeks were randomly selected and sacrificed, root of aorta of which was taken, and replication condition in AS model was observed by HE staining. The remaining mice were randomly divided into 5 groups as follows (n=15):
# A. model group: vehicle; B. ginsenoside compound K low dose group: ginsenoside compound K 12.5 mg/kg/day; C. ginsenoside compound K middle dose group: ginsenoside compound K 25.0 mg/kg/day; D. ginsenoside compound K high dose group: ginsenoside compound K 50.0 mg/kg/day; E. simvastatin control group: simvastatin 10.0 mg/kg/day.
# Above drugs were firstly solved in DMSO, then suspended in 0.5% carboxymethylcellulose solution, mixed homogeneously, and then were administered via gavage, once a day. Mice were weighted once a week, and ingestion amounts were recorded, and drug doses were adjusted according to weight, interfering for 15 weeks. All the animal were sacrificed in 30th week.
# apo E^−/^− mouse serum sample: apo E^−/^− mice were interfered by drug for 15 weeks, then were fasted for 12 hours before sampling. Before being sacrificed, mice were anesthetized by 0.5-1.0 mL 1% Pentobarbital via abdominal cavity, and under sterile condition, 1.5 mL blood form their eye sockets venous plexus was sampled, and centrifugated at 2500 r/min for 10 minutes, and then serum was separated, and frozen and stored at −80° C., for determining blood fat concentrations and inflammatory markers in serum.
# • blood fat assay: TC, TG, HDL-C, and LDL-C concentrations in serum were determined by applying Olympus Au2700 fully automatic biochemical appearance. • serum inflammatory markers assay: hs-CRP and sCD40L concentrations were determined by applying double antibody sandwich ELISA, in accordance with ELISA kit operating instruction (hs-CRP ELISA kit bought from Herrenberg company, Germany; sCD40L ELISA kit bought from Bender Medsystems company, Austria). • real-time quantitative PCR analysis was carried out on expression of CD36, perilipin, ABCA1, LXRα, MMP-9 and NF-κ B mRNA in apo E^−/^− mouse aorta (a reference method: Zhang Yiguan, Li Xiaohui, Fan Jishan, Zhang Haigang, Li Shuhui, Liao Wenqiang, Pang Yan, Jia Yi. Total panax notoginsenosides suppress atherosclerosis formation in rats by means of antiinflammatory and blood fat regulating action. Progress in Modern Biomedicine. 2007, 27 (11): 1601-1607)0 • morphology index image analysis: When slices were HE stained, under X40 fold ordinary light microscope, artery atherosclerosis plaque area of each incisal surface was determined by “Image Pro Plus 5.0” image analysis software. Plaque area (PA), vessel cross section area (CVA), lipid core area (LCA), and minimal fibrous cap thickness (mFCT) were measured, and corrected plaque area (plaque area/vessel cross section area, PA/CVA) and corrected lipid core area (lipid core area/plaque area, LCA/PA) were calculated, and average of 4 incisal surfaces was taken for each sample. […]
# NF-κB mRNA = assay: Real-time quantitative PCR of NF-κB mRNA in apo E−/− mouse aorta; format: in vivo; conditions: apo E−/− mice, 15 weeks
# Text: Total RNA sample of root of aorta of apo E^−/^− mouse: Total RNA samples of root of aorta in each group mouse were extracted, and utilized for analysis of gene expression of various lipid metabolic factors, inflammatory factors, and nucleic transcription factors associated with AS plaque development.
# [2] = simvastatin 10.0 mg/kg/day gavage
# [3] = C-K high dose 50.0 mg/kg/day gavage
# [4] = C-K middle dose 25.0 mg/kg/day gavage
structure (smiles),measurement,setting,value
"CCC(C)(C)C(=O)O[C@H]1C[C@@H](C)C=C2C=C[C@H](C)[C@H](CC[C@@H]3C[C@@H](O)CC(=O)O3)[C@H]21 [simvastatin, reference compound]",expression of CD36 mRNA in aorta (relative concentrations),CD36 mRNA; [2],0.77 ± 0.11^a
same,expression of LXRα mRNA in aorta (relative concentrations),LXRα mRNA; [2],0.95 ± 0.07
same,expression of MMP-9 mRNA in aorta (relative concentrations),MMP-9 mRNA; [2],0.94 ± 0.14^a
same,hs-CRP concentration in serum,hs-CRP; [2],4.57 ± 0.68^b ng/mL
same,plaque area/ arteria lining endothelium area,[1]; [2],6.31 ± 0.19^b %
same,HDL-C in serum,apo E−/− mouse; [2],3.80 ± 1.12 mmol/L
same,LDL-C in serum,apo E−/− mouse; [2],1.73 ± 1.36^b mmol/L
same,TC in serum,apo E−/− mouse; [2],13.62 ± 4.49^b mmol/L
same,TC-HDL/HDL,apo E−/− mouse; [2],2.58 ± 0.18^b
same,TG in serum,apo E−/− mouse; [2],1.34 ± 0.46^b mmol/L
same,expression of NF-κB mRNA in aorta (relative concentrations),NF-κB mRNA; [2],0.89 ± 0.16^b
"CC(C)=CCC[C@](C)(OC1OC(CO)C(O)C(O)C1O)C1CC[C@]2(C)C1[C@H](O)CC1[C@@]3(C)CC[C@H](O)C(C)(C)C3CC[C@]12C (stereo partly drawn) [C-K, 20-O-β-D-glucopyranosyl 20-(S)-protopanaxadiol]",expression of CD36 mRNA in aorta (relative concentrations),CD36 mRNA; [3],0.31 ± 0.08^b
same,expression of CD36 mRNA in aorta (relative concentrations),"CD36 mRNA; C-K low dose 12.5 mg/kg/day gavage, model 1.12 ± 0.13",0.54 ± 0.07^b
same,expression of CD36 mRNA in aorta (relative concentrations),CD36 mRNA; [4],0.47 ± 0.08^b
same,expression of LXRα mRNA in aorta (relative concentrations),LXRα mRNA; [3],1.36 ± 0.06^b
same,expression of LXRα mRNA in aorta (relative concentrations),"LXRα mRNA; C-K low dose 12.5 mg/kg/day gavage, model 0.87 ± 0.06",1.26 ± 0.05^b
same,expression of LXRα mRNA in aorta (relative concentrations),LXRα mRNA; [4],1.33 ± 0.05^b
same,expression of MMP-9 mRNA in aorta (relative concentrations),MMP-9 mRNA; [3],0.67 ± 0.13^b
same,expression of MMP-9 mRNA in aorta (relative concentrations),"MMP-9 mRNA; C-K low dose 12.5 mg/kg/day gavage, model 1.15 ± 0.12",0.87 ± 0.12^b
same,expression of MMP-9 mRNA in aorta (relative concentrations),MMP-9 mRNA; [4],0.78 ± 0.11^b
same,hs-CRP concentration in serum,hs-CRP; [3],6.14 ± 0.29^a ng/mL
same,hs-CRP concentration in serum,"hs-CRP; C-K low dose 12.5 mg/kg/day gavage, model 8.13 ± 0.51",6.68 ± 0.54^a ng/mL
same,hs-CRP concentration in serum,hs-CRP; [4],6.49 ± 0.36^a ng/mL
same,plaque area/ arteria lining endothelium area,[1]; [3],6.73 ± 0.65^b %
same,plaque area/ arteria lining endothelium area,"[1]; C-K low dose 12.5 mg/kg/day gavage, model 12.24 ± 0.45",9.28 ± 0.39^b %
same,plaque area/ arteria lining endothelium area,[1]; [4],9.54 ± 0.21^b %
same,action in regulating blood fat compared with simvastatin,apo E−/− mouse; C-K 12.5-50.0 mg/kg/day vs simvastatin 10.0 mg/kg/day,not as good as that of simvastatin
same,HDL-C in serum,apo E−/− mouse; [3],4.42 ± 1.06^a mmol/L
same,LDL-C in serum,apo E−/− mouse; [3],6.11 ± 1.18^a mmol/L
same,TC in serum,apo E−/− mouse; [3],20.48 ± 4.34^b mmol/L
same,TC-HDL/HDL,apo E−/− mouse; [3],3.63 ± 0.10^b
same,TG in serum,apo E−/− mouse; [3],2.19 ± 0.51^b mmol/L
same,TG in serum,"apo E−/− mouse; C-K low dose 12.5 mg/kg/day gavage, model 2.65 ± 0.39",2.32 ± 0.41^a mmol/L
same,HDL-C in serum,"apo E−/− mouse; C-K low dose 12.5 mg/kg/day gavage, model 3.79 ± 1.17",4.08 ± 1.32^a mmol/L
same,TC-HDL/HDL,"apo E−/− mouse; C-K low dose 12.5 mg/kg/day gavage, model 5.24 ± 0.36",4.34 ± 0.16^a
same,LDL-C in serum,"apo E−/− mouse; C-K low dose 12.5 mg/kg/day gavage, model 6.99 ± 1.09",6.45 ± 1.30^a mmol/L
same,TC in serum,"apo E−/− mouse; C-K low dose 12.5 mg/kg/day gavage, model 23.59 ± 3.79",21.79 ± 4.53^a mmol/L
same,HDL-C in serum,apo E−/− mouse; [4],4.12 ± 1.15^a mmol/L
same,LDL-C in serum,apo E−/− mouse; [4],6.34 ± 1.22^a mmol/L
same,TC in serum,apo E−/− mouse; [4],21.29 ± 4.44^a mmol/L
same,TC-HDL/HDL,apo E−/− mouse; [4],4.17 ± 0.13^b
same,TG in serum,apo E−/− mouse; [4],2.28 ± 0.32^a mmol/L
same,expression of NF-κB mRNA in aorta (relative concentrations),NF-κB mRNA; [3],0.69 ± 0.16^b
same,expression of NF-κB mRNA in aorta (relative concentrations),"NF-κB mRNA; C-K low dose 12.5 mg/kg/day gavage, model 1.27 ± 0.18",0.90 ± 0.19^b
same,expression of NF-κB mRNA in aorta (relative concentrations),NF-κB mRNA; [4],0.78 ± 0.23^b
